# Patent US20020006915A1, “Use of COX-2 inhibitors to treat sepsis, complications thereof, and EP receptor modulation” (priority 2000, published 2002)
# Entries after “also recorded” stand apart in the source; their conditions may differ.
# Columns and labels:
# EP2 receptor = EP2 receptor expression in LPS stimulated human PBMC's via RT-PCR; type: cell-based; settings: control PBMC's
# Description: (§1) Serial dilutions were made to co-culture cells with a final concentration of […] NS-398 in a 0.1% DMSO. Control and trauma groups were co-cultured with 0.1% DMSO vehicle for comparisons with NS-398 treated groups.
# EP4 receptor = EP4 receptor expression in LPS stimulated human PBMC's via RT-PCR; type: cell-based; settings: control PBMC's
# Description: as §1
# CD14 receptor = settings: mononuclear cells from control and injured subjects, co-culture with 100 μM PGE2
# Description: To confirm that injury was not down regulating all circulating mononuclear cell surface receptors, the expression of the CD14 receptor, which is ubiquitous on the surface of mononuclear cells, was evaluated.
# [1] = exogenous PGE2 from 10^−4 μM, below 100 μM
compound,measurement,setting,value
"CCCCC[C@H](O)/C=C/[C@H]1[C@H](O)CC(=O)[C@@H]1C/C=C\CCCC(=O)O [PGE2, Prostaglandin-E2]",EP2 receptor expression,EP2 receptor; 100 μM exogenous PGE2,attenuated to levels below those seen in control samples; also recorded: Decreased expression
same,EP2 receptor expression,EP2 receptor; [1],no change in receptor expression; also recorded: No attenuation
same,EP4 receptor expression,EP4 receptor; 100 μM exogenous PGE2,attenuated to levels below those seen in control samples; also recorded: Decreased expression
same,EP4 receptor expression,EP4 receptor; [1],no change in receptor expression; also recorded: No attenuation
same,CD14 receptor expression,CD14 receptor,did not markedly alter the levels of CD14 receptor expression
